Test results from ChEMBL document CHEMBL4390691, “Discovery of 1,3-dihydro-2H-imidazo[4,5-c]quinolin-2-ones based novel, potent and PI3Kδ selective inhibitors” (Bioorg Med Chem Lett, 2019).

Key:
TMD8 = assay: Antiproliferative activity against human TMD8 cells; format: functional, cell-based
[1] = biological target: Serine/threonine-protein kinase mTOR (Homo sapiens, UniProt P42345); assay: Inhibition of mTOR (unknown origin) assessed as reduction in p70S6K phosphorylation
[2] = biological target: T1, Phosphatidylinositol 4,5-bisphosphate 3-kinase catalytic subunit delta isoform (Homo sapiens, UniProt O00329); assay: Inhibition of human PI3Kdelta using PIP2 as substrate after 1 hr
T1 sequence (O00329 whole entry): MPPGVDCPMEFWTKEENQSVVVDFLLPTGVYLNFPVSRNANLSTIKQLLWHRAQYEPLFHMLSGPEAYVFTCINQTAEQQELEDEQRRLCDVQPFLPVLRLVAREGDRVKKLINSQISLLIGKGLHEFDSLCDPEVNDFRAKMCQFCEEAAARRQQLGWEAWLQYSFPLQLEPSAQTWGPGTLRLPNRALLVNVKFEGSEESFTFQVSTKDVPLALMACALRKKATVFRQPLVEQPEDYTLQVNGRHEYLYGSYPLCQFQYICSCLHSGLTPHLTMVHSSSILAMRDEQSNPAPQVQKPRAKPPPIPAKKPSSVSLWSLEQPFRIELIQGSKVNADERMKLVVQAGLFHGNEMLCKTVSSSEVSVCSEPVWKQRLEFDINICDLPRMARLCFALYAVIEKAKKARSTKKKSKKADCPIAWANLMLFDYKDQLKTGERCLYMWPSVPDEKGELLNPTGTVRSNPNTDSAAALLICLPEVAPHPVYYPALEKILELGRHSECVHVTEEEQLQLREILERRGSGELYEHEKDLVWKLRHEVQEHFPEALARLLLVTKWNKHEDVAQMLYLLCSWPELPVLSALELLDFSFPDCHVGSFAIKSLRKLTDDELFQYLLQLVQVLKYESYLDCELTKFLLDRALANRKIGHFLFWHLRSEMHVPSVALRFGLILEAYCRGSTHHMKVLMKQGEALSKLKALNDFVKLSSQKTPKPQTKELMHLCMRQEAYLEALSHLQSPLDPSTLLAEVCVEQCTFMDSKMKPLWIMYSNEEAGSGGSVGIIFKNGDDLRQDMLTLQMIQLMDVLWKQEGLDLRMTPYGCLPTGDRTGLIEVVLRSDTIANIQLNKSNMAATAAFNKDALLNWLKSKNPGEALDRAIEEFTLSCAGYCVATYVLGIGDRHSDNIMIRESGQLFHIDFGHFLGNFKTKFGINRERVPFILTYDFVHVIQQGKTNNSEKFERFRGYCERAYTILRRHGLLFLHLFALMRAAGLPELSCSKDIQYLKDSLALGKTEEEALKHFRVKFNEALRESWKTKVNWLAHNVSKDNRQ

| IC50 [1] [nM] | IC50 [2] [nM] | SMILES | IC50 (TMD8) [nM] |
| --- | --- | --- | --- |
| > 1000 | – | CC[C@H](Nc1ncnc2[nH]cnc12)c1nc2cccc(F)c2c(=O)n1-c1ccccc1 [IDELALISIB] | 795 |
| – | 5.9 | COc1ccc(Cn2c(=O)n(C)c3c4cc(-c5cnc(OC)c(NS(=O)(=O)C6CC6)c5)ccc4ncc32)cc1 | – |
| – | 11.1 | COc1ccc(Cn2c(=O)n(C)c3c4cc(-c5cnc(OC)c(C)c5)ccc4ncc32)cc1 | – |
| – | 29.4 | COc1ccc(Cn2c(=O)n(C)c3c4cc(-c5ccccc5)ccc4ncc32)cc1 | – |
